The target of one experiment is DNA-PK(h) (Homo sapiens, UniProt P78527). The experiment is described as follows: Evaluation of inhibitory activity against DNA-PK (HTRF kinase assay, GST-cMyc-p53 substrate). Conditions: for inhibition at 0.01 µM: compound concentration 0.01 μM, read-out: EXP_VALUE(% Inhibition) DNA-PK(h) 0.01 μM; for inhibition at 0.1 µM: compound concentration 0.1 μM, read-out: EXP_VALUE(% Inhibition) DNA-PK(h) 0.1 μM. In kind it is biochemical. The gist of the method:
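p53 Ser15 phosphorylation by human DNA-PK was measured by time-resolved FRET ratio (665/620 nm ×10000) using Eu-labelled anti-phospho-Ser15 and d2 anti-GST antibodies. Substrate GST-cMyc-p53 at 50 μM; Mg/ATP-initiated, 30 min at room temperature, EDTA stop.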
On the technique in general: Time-resolved FRET reads energy transfer from a long-lived donor to a nearby acceptor.

For experiment [1], the target named is PI3K-δ (PI3K(p1108/p857) (h)) (Homo sapiens, UniProt O00329). Description: Evaluation of inhibitory activity against PI3K-δ (HTRF kinase assay). It is filed as biochemical. Conditions: for inhibition at 0.01 µM: compound concentration 0.01 μM, read-out: EXP_VALUE(% Inhibition) PI3K-δ 0.01 μM; for inhibition at 0.1 µM: compound concentration 0.1 μM, read-out: EXP_VALUE(% Inhibition) PI3K-δ 0.1 μM. The gist of the method:
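HTRF read-out (665/620 nm ratio ×10000) used Eu-labelled anti-GST, GST-tagged GRP1 PH domain and streptavidin-allophycocyanin after EDTA/PIP3 stop.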

Chain of PI3K-δ (PI3K(p1108/p857) (h)) (O00329 whole entry, the tested form may be a part): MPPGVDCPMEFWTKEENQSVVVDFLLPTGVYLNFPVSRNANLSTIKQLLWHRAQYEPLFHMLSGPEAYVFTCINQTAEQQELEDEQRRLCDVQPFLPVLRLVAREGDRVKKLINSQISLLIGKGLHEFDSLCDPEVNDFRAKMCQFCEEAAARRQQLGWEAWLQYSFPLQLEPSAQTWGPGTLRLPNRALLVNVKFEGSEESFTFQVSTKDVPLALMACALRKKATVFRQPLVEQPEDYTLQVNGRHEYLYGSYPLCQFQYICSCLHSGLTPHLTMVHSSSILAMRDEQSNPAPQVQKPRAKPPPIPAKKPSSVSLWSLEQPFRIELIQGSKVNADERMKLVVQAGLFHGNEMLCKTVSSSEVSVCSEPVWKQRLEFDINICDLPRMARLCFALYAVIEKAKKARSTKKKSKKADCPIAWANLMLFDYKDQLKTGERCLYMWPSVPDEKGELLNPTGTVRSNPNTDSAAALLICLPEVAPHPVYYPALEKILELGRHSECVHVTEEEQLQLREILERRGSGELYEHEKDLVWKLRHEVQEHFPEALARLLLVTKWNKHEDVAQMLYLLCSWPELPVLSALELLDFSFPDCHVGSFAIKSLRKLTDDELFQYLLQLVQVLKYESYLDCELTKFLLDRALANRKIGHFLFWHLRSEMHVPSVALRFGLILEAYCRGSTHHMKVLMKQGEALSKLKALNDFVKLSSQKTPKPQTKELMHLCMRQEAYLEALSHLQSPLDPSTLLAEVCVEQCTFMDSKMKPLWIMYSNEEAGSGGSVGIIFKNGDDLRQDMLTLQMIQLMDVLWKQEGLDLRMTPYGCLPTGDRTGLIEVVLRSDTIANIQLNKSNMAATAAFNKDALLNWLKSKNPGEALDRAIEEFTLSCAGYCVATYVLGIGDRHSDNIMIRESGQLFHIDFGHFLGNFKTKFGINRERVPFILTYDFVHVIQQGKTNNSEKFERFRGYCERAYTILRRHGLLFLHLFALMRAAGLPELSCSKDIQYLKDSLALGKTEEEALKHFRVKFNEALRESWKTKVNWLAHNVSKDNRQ
Chain of PI3K-δ (PI3K(p1108/p857) (h)) (P27986 whole entry partner, the tested form may be a part): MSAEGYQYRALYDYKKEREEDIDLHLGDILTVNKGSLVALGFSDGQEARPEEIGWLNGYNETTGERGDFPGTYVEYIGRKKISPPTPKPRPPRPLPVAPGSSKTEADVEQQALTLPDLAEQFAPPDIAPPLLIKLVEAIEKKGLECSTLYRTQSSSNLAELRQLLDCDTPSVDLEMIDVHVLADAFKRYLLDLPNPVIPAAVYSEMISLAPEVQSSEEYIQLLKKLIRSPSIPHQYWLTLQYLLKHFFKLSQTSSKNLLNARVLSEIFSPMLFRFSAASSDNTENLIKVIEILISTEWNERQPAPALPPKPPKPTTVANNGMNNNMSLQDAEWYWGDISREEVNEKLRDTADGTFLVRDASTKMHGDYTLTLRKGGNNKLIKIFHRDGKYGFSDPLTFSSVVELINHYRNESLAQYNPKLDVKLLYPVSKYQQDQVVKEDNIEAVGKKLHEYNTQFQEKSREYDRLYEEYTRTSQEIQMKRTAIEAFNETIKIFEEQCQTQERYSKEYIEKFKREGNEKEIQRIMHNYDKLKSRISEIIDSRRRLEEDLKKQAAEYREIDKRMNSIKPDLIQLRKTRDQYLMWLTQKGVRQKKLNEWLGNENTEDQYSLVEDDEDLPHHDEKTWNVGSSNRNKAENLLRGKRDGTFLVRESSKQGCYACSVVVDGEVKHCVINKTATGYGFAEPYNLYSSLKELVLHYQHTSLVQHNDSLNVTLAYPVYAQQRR

For `C[C@H](Nc1ncnc2[nH]ccc(=O)c12)c1c(Cl)c2cccc(-c3ccc(N(C)C)nc3)c2c(=O)n1-c1ccccc1` [Example 86, (S)-4-((1-(4-chloro-8-(6-(dimethylamino)pyridin-3-yl)-1-oxo-2-phenyl-1,2-dihydroisoquinolin-3-yl)ethyl)amino)pyrido[2,3-d]pyrimidin-5(8H)-one], on DNA-PK(h), the inhibition (in general, the relative decrease from the control value, in per cent) at 0.01 µM is 72% and the inhibition at 0.1 µM came to 95%. In addition, in experiment [1], the inhibition at 0.01 µM is 67% and the inhibition at 0.1 µM came to 94%.
For the compound `C[C@H](Nc1ncnc2[nH]ccc(=O)c12)c1c(Cl)c2cccc(-c3ccc(N4CCCC4)cc3)c2c(=O)n1-c1ccccc1` [Example 87, (S)-4-((1-(4-chloro-1-oxo-2-phenyl-8-(4-(pyrrolidin-1-yl)phenyl)-1,2-dihydroisoquinolin-3-yl)ethyl)amino)pyrido[2,3-d]pyrimidin-5(8H)-one], the figures for the inhibition at 0.01 µM (at DNA-PK(h); in experiment [1]) were 31% and 38%, respectively. In addition, the values for the inhibition at 0.1 µM (at DNA-PK(h); in experiment [1]) were 79% and 83%, respectively.
The corresponding values for `C[C@H](Nc1ncnc2[nH]ccc(=O)c12)c1c(Cl)c2cccc(-c3ccc(N4CCCCC4)cc3)c2c(=O)n1-c1ccccc1` [Example 88, (S)-4-((1-(4-chloro-1-oxo-2-phenyl-8-(4-(piperidin-1-yl)phenyl)-1,2-dihydroisoquinolin-3-yl)ethyl)amino)pyrido[2,3-d]pyrimidin-5(8H)-one] are 33%, 42%, 78% and 88%.
As to `C[C@H](Nc1ncnc2[nH]ccc(=O)c12)c1c(Cl)c2cccc(-c3cccc4[nH]ccc34)c2c(=O)n1-c1ccccc1` [Example 89, (S)-4-((1-(4-chloro-8-(1H-indol-4-yl)-1-oxo-2-phenyl-1,2-dihydroisoquinolin-3-yl)ethyl)amino)pyrido[2,3-d]pyrimidin-5(8H)-one], at DNA-PK(h), the inhibition at 0.01 µM stood at 17% and the inhibition at 0.1 µM stood at 52%. Further, in experiment [1], the inhibition at 0.01 µM amounted to 58% and the inhibition at 0.1 µM turned out to be 92%.
On the same counts, the results for `C[C@H](Nc1ncnc2[nH]ccc(=O)c12)c1c(Cl)c2cccc(-c3cccc(CC#N)c3)c2c(=O)n1-c1ccccc1` [Example 91, (S)-2-(3-(4-chloro-1-oxo-3-(1-((5-oxo-5,8-dihydropyrido[2,3-d]pyrimidin-4-yl)amino)ethyl)-2-phenyl-1,2-dihydroisoquinolin-8-yl)phenyl)acetonitrile] are 77%, 98%, 89% and 101%.
For `C[C@H](Nc1ncnc2[nH]ccc(=O)c12)c1c(Cl)c2cccc(-c3ccc(-c4nnc(N)s4)cc3)c2c(=O)n1-c1ccccc1` [Example 92, (S)-4-((1-(8-(4-(5-amino-1,3,4-thiadiazol-2-yl)phenyl)-4-chloro-1-oxo-2-phenyl-1,2-dihydroisoquinolin-3-yl)ethyl)amino)pyrido[2,3-d]pyrimidin-5(8H)-one], at DNA-PK(h), the inhibition at 0.01 µM was 63% and the inhibition at 0.1 µM stood at 92%. Besides, in experiment [1], the inhibition at 0.01 µM is 91% and the inhibition at 0.1 µM came out at 97%.
The corresponding values for `C[C@H](Nc1ncnc2[nH]ccc(=O)c12)c1c(Cl)c2cccc(-c3ccc(-c4cccs4)cc3)c2c(=O)n1-c1ccccc1` [Example 93, (S)-4-((1-(4-chloro-1-oxo-2-phenyl-8-(4-(thiophen-2-yl)phenyl)-1,2-dihydroisoquinolin-3-yl)ethyl)amino)pyrido[2,3-d]pyrimidin-5(8H)-one] are 13%, 45%, 46% and 79%.
For `C[C@H](Nc1ncnc2[nH]ccc(=O)c12)c1c(Cl)c2cccc(-c3ccc(N)cc3)c2c(=O)n1-c1ccccc1` [Example 94, (S)-4-((1-(8-(4-aminophenyl)-4-chloro-1-oxo-2-phenyl-1,2-dihydroisoquinolin-3-yl)ethyl)amino)pyrido[2,3-d]pyrimidin-5(8H)-one], the inhibition at 0.01 µM on DNA-PK(h) was 78%; in experiment [1] it was 84%. Also, the inhibition at 0.1 µM at DNA-PK(h) came out at 100%; in experiment [1], 95%.
On the same counts, the results for `C[C@H](Nc1ncnc2[nH]ccc(=O)c12)c1c(Cl)c2cccc(-c3ccc(S)cc3)c2c(=O)n1-c1ccccc1` [Example 95, (S)-4-((1-(4-chloro-8-(4-mercaptophenyl)-1-oxo-2-phenyl-1,2-dihydroisoquinolin-3-yl)ethyl)amino)pyrido[2,3-d]pyrimidin-5(8H)-one] are 9%, 3%, 16% and 14%.
With `C[C@H](Nc1ncnc2[nH]ccc(=O)c12)c1c(Cl)c2cccc(-c3cnn(C4CC4)c3)c2c(=O)n1-c1ccccc1` [Example 96, (S)-4-((1-(4-chloro-8-(1-cyclopropyl-1H-pyrazol-4-yl)-1-oxo-2-phenyl-1,2-dihydroisoquinolin-3-yl)ethyl)amino)pyrido[2,3-d]pyrimidin-5(8H)-one], on DNA-PK(h), the inhibition at 0.01 µM turned out to be 78% and the inhibition at 0.1 µM stood at 100%. In addition, in experiment [1], the inhibition at 0.01 µM stood at 86% and the inhibition at 0.1 µM turned out to be 97%.
The corresponding values for `C[C@H](Nc1ncnc2[nH]ccc(=O)c12)c1c(Cl)c2cccc(-c3cccc(Cl)c3)c2c(=O)n1-c1ccccc1` [Example 97, (S)-4-((1-(4-chloro-8-(3-chlorophenyl)-1-oxo-2-phenyl-1,2-dihydroisoquinolin-3-yl)ethyl)amino)pyrido[2,3-d]pyrimidin-5(8H)-one] are 35%, 87%, 84% and 99%.
In the case of `Cc1ccc(-c2cccc3c(Cl)c([C@H](C)Nc4ncnc5[nH]ccc(=O)c45)n(-c4ccccc4)c(=O)c23)o1` [Example 98, (S)-4-((1-(4-chloro-8-(5-methylfuran-2-yl)-1-oxo-2-phenyl-1,2-dihydroisoquinolin-3-yl)ethyl)amino)pyrido[2,3-d]pyrimidin-5(8H)-one], on DNA-PK(h), the inhibition at 0.01 µM worked out at 84% and the inhibition at 0.1 µM turned out to be 98%. In experiment [1], the inhibition at 0.01 µM was 66% and the inhibition at 0.1 µM came out at 91%.
For `COc1cc(-c2cccc3c(Cl)c([C@H](C)Nc4ncnc5[nH]ccc(=O)c45)n(-c4ccccc4)c(=O)c23)ccc1Cl` [Example 99, (S)-4-((1-(4-chloro-8-(4-chloro-3-methoxyphenyl)-1-oxo-2-phenyl-1,2-dihydroisoquinolin-3-yl)ethyl)amino)pyrido[2,3-d]pyrimidin-5(8H)-one], on DNA-PK(h), the inhibition at 0.01 µM was 54% and the inhibition at 0.1 µM is 95%. For the same compound, in experiment [1], the inhibition at 0.01 µM came to 83% and the inhibition at 0.1 µM amounted to 108%.
`COc1cc(-c2cccc3cc([C@H](C)Nc4ncnc5[nH]ccc(=O)c45)n(-c4ccccc4)c(=O)c23)ccc1Cl` [Example 100, (S)-4-((1-(8-(4-chloro-3-methoxyphenyl)-1-oxo-2-phenyl-1,2-dihydroisoquinolin-3-yl)ethyl)amino)pyrido[2,3-d]pyrimidin-5(8H)-one]: on DNA-PK(h), the inhibition at 0.01 µM was determined as 17% and the inhibition at 0.1 µM was determined as 54%. Moreover, in experiment [1], the inhibition at 0.01 µM worked out at 82% and the inhibition at 0.1 µM turned out to be 104%.
On the same counts, the results for `CC(C)Oc1ccc(-c2cccc3c(Cl)c([C@H](C)Nc4ncnc5[nH]ccc(=O)c45)n(-c4ccccc4)c(=O)c23)cn1` [Example 101, (S)-4-((1-(4-chloro-8-(6-isopropoxypyridin-3-yl)-1-oxo-2-phenyl-1,2-dihydroisoquinolin-3-yl)ethyl)amino)pyrido[2,3-d]pyrimidin-5(8H)-one] are 68%, 94%, 90% and 102%.
Consider `C[C@H](Nc1ncnc2[nH]ccc(=O)c12)c1c(Cl)c2cccc(-c3cncnc3)c2c(=O)n1-c1ccccc1` [Example 102, (S)-4-((1-(4-chloro-1-oxo-2-phenyl-8-(pyrimidin-5-yl)-1,2-dihydroisoquinolin-3-yl)ethyl)amino)pyrido[2,3-d]pyrimidin-5(8H)-one], for which, on DNA-PK(h), the inhibition at 0.01 µM amounted to 73% and the inhibition at 0.1 µM stood at 94%. Further, in experiment [1], the inhibition at 0.01 µM was found to be 110% and the inhibition at 0.1 µM came to 105%.
For the compound `COc1cc(-c2cccc3c(Cl)c([C@H](C)Nc4ncnc5[nH]ccc(=O)c45)n(-c4ccccc4)c(=O)c23)cc(OC)c1OC` [Example 103, (S)-4-((1-(4-chloro-1-oxo-2-phenyl-8-(3,4,5-trimethoxyphenyl)-1,2-dihydroisoquinolin-3-yl)ethyl)amino)pyrido[2,3-d]pyrimidin-5(8H)-one], the inhibition at 0.01 µM (on DNA-PK(h); in experiment [1]) was 91% in each case. For the same compound, the inhibition at 0.1 µM amounted to 101% on DNA-PK(h) and 103% in experiment [1].
Turning to `C[C@H](Nc1ncnc2[nH]ccc(=O)c12)c1c(Cl)c2cccc(-c3cc(F)cc(Cl)c3)c2c(=O)n1-c1ccccc1` [Example 104, (S)-4-((1-(4-chloro-8-(3-chloro-5-fluorophenyl)-1-oxo-2-phenyl-1,2-dihydroisoquinolin-3-yl)ethyl)amino)pyrido[2,3-d]pyrimidin-5(8H)-one], on DNA-PK(h), the inhibition at 0.01 µM is 16% and the inhibition at 0.1 µM was 66%. Moreover, in experiment [1], the inhibition at 0.01 µM was determined as 63% and the inhibition at 0.1 µM is 95%.
